According to ChEMBL document CHEMBL1201862, “PubChem BioAssay data set” (2004):
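Tested at 5 concentrations; 48 h exposure; 96-well plates; endpoints linearly interpolated, else capped at highest concentration. Abbreviation: GI50, concentration required for 50% inhibition of growth.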 Calls of active or inactive are those of the source. Cut-off read from the data, not from the text of the source: active = GI50 up to about 1.1 µM and inactive = higher.

How the values were obtained:
Assay in all cases: NCI tumour cell line growth inhibition, 48 h
LXFL 529 = test system: LXFL 529
NCI-H522 = test system: NCI-H522
HOP-62 = test system: HOP-62
HL-60 = test system: HL-60
UACC-257 = test system: UACC-257
786-0 = test system: 786-0
HOP-18 = test system: HOP-18
M14 = test system: M14
RXF 631 = test system: RXF 631
RXF 393 = test system: RXF 393
OVCAR-5 = test system: OVCAR-5
HOP-92 = test system: HOP-92
IGROV-1 = test system: IGROV-1
RPMI-8226 = test system: RPMI-8226
NCI-H460 = test system: NCI-H460
ACHN = test system: ACHN
U-251 = test system: U-251
SF-539 = test system: SF-539
A549 = test system: A549
DMS-273 = test system: DMS-273
DMS-114 = test system: DMS-114
UACC-62 = test system: UACC-62
LOX IMVI = test system: LOX IMVI
SK-OV-3 = test system: SK-OV-3
SNB-75 = test system: SNB-75
KM12 = test system: KM12
HCC 2998 = test system: HCC 2998
OVCAR-3 = test system: OVCAR-3
HCT-15 = test system: HCT-15
CCRF-CEM = test system: CCRF-CEM
SW-620 = test system: SW-620
COLO 205 = test system: COLO 205
SR = test system: SR
OVCAR-4 = test system: OVCAR-4
MOLT-4 = test system: MOLT-4
M19-MEL = test system: M19-MEL
EKVX = test system: EKVX
XF498 = test system: XF498
NCI-H23 = test system: NCI-H23
SN12C = test system: SN12C
HT-29 = test system: HT-29
SK-MEL-28 = test system: SK-MEL-28
OVCAR-8 = test system: OVCAR-8
Malme-3M = test system: Malme-3M
SK-MEL-5 = test system: SK-MEL-5
K562 = test system: K562
SNB-19 = test system: SNB-19
UO-31 = test system: UO-31
HCT-116 = test system: HCT-116
NCI-H226 = test system: NCI-H226
SF-295 = test system: SF-295
TK-10 = test system: TK-10
DLD-1 = test system: DLD-1
SF-268 = test system: SF-268
KM-20L2 = test system: KM-20L2
SK-MEL-2 = test system: SK-MEL-2
SNB-78 = test system: SNB-78
CAKI-1 = test system: CAKI-1
A498 = test system: A498

Cc1cnc2c(c1)C(=O)C1=C(OC(C)(C)CC1O)C2=O (stereo unspecified)
GI50 (LXFL 529): 16.2 µM (inactive)
GI50 (NCI-H522): 15.8 µM (inactive)
GI50 (HOP-62): 19.4 µM (inactive)
GI50 (HL-60): 4.45 µM (inactive)
GI50 (UACC-257): 13.3 µM (inactive)
GI50 (786-0): 14.9 µM (inactive)
GI50 (HOP-18): 15.8 µM (inactive)
GI50 (M14): 16.4 µM (inactive)
GI50 (RXF 631): > 10 µM (inactive)
GI50 (RXF 393): 15.5 µM (inactive)
GI50 (OVCAR-5): > 100 µM (inactive)
GI50 (HOP-92): 16.7 µM (inactive)
GI50 (IGROV-1): 15.2 µM (inactive)
GI50 (RPMI-8226): 13.6 µM (inactive)
GI50 (NCI-H460): 11 µM (inactive)
GI50 (ACHN): 15.2 µM (inactive)
GI50 (U-251): 15.2 µM (inactive)
GI50 (SF-539): 16.4 µM (inactive)
GI50 (A549): 16.2 µM (inactive)
GI50 (DMS-273): 11.9 µM (inactive)
GI50 (DMS-114): 10.4 µM (inactive)
GI50 (UACC-62): 3.79 µM (inactive)
GI50 (LOX IMVI): 10.5 µM (inactive)
GI50 (SK-OV-3): 18.9 µM (inactive)
GI50 (SNB-75): 14.4 µM (inactive)
GI50 (KM12): > 100 µM (inactive)
GI50 (HCC 2998): 17.7 µM (inactive)
GI50 (OVCAR-3): 11.1 µM (inactive)
GI50 (HCT-15): 16.7 µM
GI50 (CCRF-CEM): 13.2 µM (inactive)
GI50 (SW-620): 14.7 µM (inactive)
GI50 (COLO 205): 16.7 µM (inactive)
GI50 (SR): 7.89 µM (inactive)
GI50 (OVCAR-4): 12.8 µM (inactive)
GI50 (MOLT-4): 15.9 µM (inactive)
GI50 (M19-MEL): 3.1 µM (inactive)
GI50 (EKVX): 20.7 µM (inactive)
GI50 (XF498): 19.5 µM (inactive)
GI50 (NCI-H23): 10.7 µM (inactive)
GI50 (SN12C): 15.6 µM (inactive)
GI50 (HT-29): 20.6 µM (inactive)
GI50 (SK-MEL-28): 17.3 µM (inactive)
GI50 (OVCAR-8): 15 µM (inactive)
GI50 (Malme-3M): 14.4 µM (inactive)
GI50 (SK-MEL-5): 14 µM (inactive)
GI50 (K562): 16.8 µM (inactive)
GI50 (SNB-19): 16.7 µM (inactive)
GI50 (UO-31): 15.7 µM (inactive)
GI50 (HCT-116): 14.4 µM (inactive)
GI50 (NCI-H226): 20.1 µM (inactive)
GI50 (SF-295): 13.3 µM (inactive)
GI50 (TK-10): 18.5 µM (inactive)
GI50 (DLD-1): 16 µM (inactive)
GI50 (SF-268): 14.9 µM (inactive)
GI50 (KM-20L2): 17.7 µM (inactive)
GI50 (SK-MEL-2): > 100 µM (inactive)

CSc1ccc(C2OC(=O)c3ccccc32)c2ccccc12 (stereo unspecified)
GI50 (LXFL 529): 58.3 µM (inactive)
GI50 (NCI-H522): 51.8 µM (inactive)
GI50 (HOP-62): > 100 µM (inactive)
GI50 (HL-60): 61.2 µM (inactive)
GI50 (UACC-257): > 100 µM (inactive)
GI50 (786-0): > 100 µM (inactive)
GI50 (HOP-18): 40.6 µM (inactive)
GI50 (M14): > 100 µM (inactive)
GI50 (RXF 631): > 100 µM (inactive)
GI50 (RXF 393): > 100 µM (inactive)
GI50 (OVCAR-5): > 100 µM (inactive)
GI50 (HOP-92): 49 µM (inactive)
GI50 (IGROV-1): 98.9 µM (inactive)
GI50 (RPMI-8226): 47.2 µM (inactive)
GI50 (NCI-H460): > 100 µM (inactive)
GI50 (ACHN): 88.5 µM (inactive)
GI50 (U-251): 37.3 µM (inactive)
GI50 (SF-539): > 100 µM (inactive)
GI50 (A549): 81.3 µM (inactive)
GI50 (DMS-114): 74.3 µM (inactive)
GI50 (UACC-62): 54.3 µM (inactive)
GI50 (LOX IMVI): 88.3 µM (inactive)
GI50 (SK-OV-3): > 100 µM (inactive)
GI50 (SNB-75): 14.2 µM (inactive)
GI50 (KM12): 78 µM (inactive)
GI50 (HCC 2998): 70.8 µM (inactive)
GI50 (HCT-15): 97.7 µM
GI50 (CCRF-CEM): 54.8 µM (inactive)
GI50 (SW-620): > 100 µM (inactive)
GI50 (COLO 205): > 100 µM (inactive)
GI50 (SR): 97.1 µM (inactive)
GI50 (OVCAR-4): 70.5 µM (inactive)
GI50 (MOLT-4): 32.3 µM (inactive)
GI50 (M19-MEL): > 100 µM (inactive)
GI50 (EKVX): > 100 µM (inactive)
GI50 (XF498): 61.8 µM (inactive)
GI50 (SN12C): > 100 µM (inactive)
GI50 (HT-29): 52.5 µM (inactive)
GI50 (SK-MEL-28): > 100 µM (inactive)
GI50 (OVCAR-8): > 100 µM (inactive)
GI50 (Malme-3M): > 100 µM (inactive)
GI50 (SK-MEL-5): 58.2 µM (inactive)
GI50 (K562): 31 µM (inactive)
GI50 (SNB-19): > 100 µM (inactive)
GI50 (UO-31): 39.7 µM (inactive)
GI50 (HCT-116): 87.5 µM (inactive)
GI50 (SF-295): > 100 µM (inactive)
GI50 (DLD-1): 86.5 µM (inactive)
GI50 (SF-268): > 100 µM (inactive)
GI50 (KM-20L2): 67 µM (inactive)
GI50 (SNB-78): 46.5 µM (inactive)
GI50 (SK-MEL-2): > 100 µM (inactive)
GI50 (CAKI-1): 80.7 µM (inactive)

O=C(Nc1cc(Cl)ccc1Cl)C(=O)C(c1cnc2ccccc2n1)[N+](=O)[O-] (stereo unspecified)
GI50 (LXFL 529): > 100 µM (inactive)
GI50 (NCI-H522): 85.1 µM (inactive)
GI50 (HOP-62): > 100 µM (inactive)
GI50 (HL-60): > 100 µM (inactive)
GI50 (UACC-257): > 100 µM (inactive)
GI50 (786-0): > 100 µM (inactive)
GI50 (HOP-18): > 100 µM (inactive)
GI50 (M14): > 100 µM (inactive)
GI50 (RXF 631): > 100 µM (inactive)
GI50 (RXF 393): > 100 µM (inactive)
GI50 (OVCAR-5): > 100 µM (inactive)
GI50 (HOP-92): > 100 µM (inactive)
GI50 (IGROV-1): > 100 µM (inactive)
GI50 (RPMI-8226): > 100 µM (inactive)
GI50 (NCI-H460): > 100 µM (inactive)
GI50 (ACHN): > 100 µM (inactive)
GI50 (U-251): > 100 µM (inactive)
GI50 (SF-539): > 100 µM (inactive)
GI50 (A549): > 100 µM (inactive)
GI50 (DMS-114): > 100 µM (inactive)
GI50 (UACC-62): > 100 µM (inactive)
GI50 (LOX IMVI): > 100 µM (inactive)
GI50 (SK-OV-3): > 100 µM (inactive)
GI50 (SNB-75): > 100 µM (inactive)
GI50 (KM12): > 100 µM (inactive)
GI50 (HCC 2998): > 100 µM (inactive)
GI50 (OVCAR-3): > 100 µM (inactive)
GI50 (HCT-15): > 100 µM
GI50 (CCRF-CEM): > 100 µM (inactive)
GI50 (SW-620): > 100 µM (inactive)
GI50 (COLO 205): > 100 µM (inactive)
GI50 (SR): > 100 µM (inactive)
GI50 (OVCAR-4): > 100 µM (inactive)
GI50 (MOLT-4): > 100 µM (inactive)
GI50 (M19-MEL): > 100 µM (inactive)
GI50 (EKVX): > 100 µM (inactive)
GI50 (XF498): > 100 µM (inactive)
GI50 (NCI-H23): > 100 µM (inactive)
GI50 (SN12C): > 100 µM (inactive)
GI50 (HT-29): > 100 µM (inactive)
GI50 (SK-MEL-28): > 100 µM (inactive)
GI50 (A498): > 100 µM (inactive)
GI50 (OVCAR-8): > 100 µM (inactive)
GI50 (Malme-3M): > 100 µM (inactive)
GI50 (SK-MEL-5): > 100 µM (inactive)
GI50 (K562): > 100 µM (inactive)
GI50 (SNB-19): > 100 µM (inactive)
GI50 (UO-31): > 100 µM (inactive)
GI50 (HCT-116): > 100 µM (inactive)
GI50 (NCI-H226): > 100 µM (inactive)
GI50 (SF-295): > 100 µM (inactive)
GI50 (TK-10): > 100 µM (inactive)
GI50 (DLD-1): > 100 µM (inactive)
GI50 (SF-268): > 100 µM (inactive)
GI50 (KM-20L2): > 100 µM (inactive)
GI50 (SNB-78): > 100 µM (inactive)
GI50 (CAKI-1): > 100 µM (inactive)
